Measurements published in patent US11857600B2, “GPCR heteromer inhibitors and uses thereof” (GPCR THERAPEUTICS, INC., priority 2017, dated 2024).
Where two headings read alike, the source gives them in different places. Where a SMILES comes first, the peptide text is derived from it. Bridges are numbered along the chain shown (N, C = ends). [ ]: non-standard residue; d: D form. The star is where a group is joined. 2Nal = N[C@@H](Cc1ccc2ccccc2c1)C(=O)O; Benzoyl(4-F) = O=C(c1ccc(F)cc1)*; Cit = NC(=O)NCCC[C@H](N)C(=O)O

Key:
Assay type in all cases: cell-based
[1] = target: CXCR4-ADCYAP1R1 heteromer (Homo sapiens, UniProt P41586+P61073); assay: Calcium mobilization assay, enhanced signaling of CXCR4-ADCYAP1R1 heteromer in MDA-MB-231 cells; details: CXCR4 inhibitor only; CXCL12 20 nM and PACAP-38 1 nM; read-out: IC50 of Ca2+ response, ADCYAP1R1 inhibitor: None
Description: (§1) Inhibitors were treated 30 min before agonist stimulation. Ca2+ mobilization was measured as described in FIG. 5, and IC50 values were calculated using GraphPad Prism software.

CXCR4-ADRB2 heteromer = target: T1, CXCR4-ADRB2 heteromer (Homo sapiens, UniProt P07550+P61073); assay: Calcium mobilization assay, enhanced signaling of CXCR4-ADRB2 heteromer in MDA-MB-231 cells; details: CXCR4 inhibitor only
T1 construct: expressed in transfected cells

CXCR4-C5AR1 heteromer = target: T2, CXCR4-C5AR1 heteromer (Homo sapiens, UniProt P21730+P61073); assay: Calcium mobilization assay, enhanced signaling of CXCR4-C5AR1 heteromer in MDA-MB-231 cells; details: CXCR4 inhibitor only; CXCL12 20 nM and C5a 0.03 nM; read-out: IC50 of Ca2+ response, C5AR1 inhibitor: None
T2 construct: expressed in transfected cells
Description: as §1

CXCR4-EDNRB heteromer = target: T3, CXCR4-EDNRB heteromer (Homo sapiens, UniProt P24530+P61073); assay: Calcium mobilization assay, enhanced signaling of CXCR4-EDNRB heteromer in MDA-MB-231 cells; details: CXCR4 inhibitor only; CXCL12 20 nM and BQ3020 0.5 nM; read-out: IC50 of Ca2+ response, EDNRB inhibitor: None
T3 construct: expressed in transfected cells
Description: (§2) The efficiency of CXCR4 inhibitors in suppressing the enhanced signaling of CXCR4-EDNRB heteromer was measured in the absence or presence of the representative EDNRB inhibitors ambrisentan or bosentan (Table 12). […] Inhibitors were treated 30 min before agonist stimulation. Ca2+ mobilization was measured as described in FIG. 5, and IC50 values were calculated using GraphPad Prism software.

CXCR4-CALCR heteromer = CXCR4-CALCR heteromer (Homo sapiens, UniProt P30988+P61073); assay: Calcium mobilization assay, enhanced signaling of CXCR4-CALCR heteromer in MDA-MB-231 cells; details: CXCR4 inhibitor only; CXCL12 20 nM and calcitonin 100 nM; read-out: IC50 of Ca2+ response, CALCR inhibitor: None
Description: as §1

CXCR4-TACR3 heteromer = target: T4, CXCR4-TACR3 heteromer (Homo sapiens, UniProt P29371+P61073); assay: Calcium mobilization assay, enhanced signaling of CXCR4-TACR3 heteromer in MDA-MB-231 cells; details: CXCR4 inhibitor only; CXCL12 20 nM and neurokinin B 0.3 nM; read-out: IC50 of Ca2+ response, TACR3 inhibitor: None
T4 construct: expressed in transfected cells
Description: as §1

CXCR4-MLNR heteromer = target: T5, CXCR4-MLNR heteromer (Homo sapiens, UniProt O43193+P61073); assay: Calcium mobilization assay, enhanced signaling of CXCR4-MLNR heteromer in MDA-MB-231 cells; details: CXCR4 inhibitor only; CXCL12 20 nM and motilin 0.2 nM; read-out: IC50 of Ca2+ response, MLNR inhibitor: None
T5 construct: expressed in transfected cells
Description: as §1

CXCR4 = target: T6, CXCR4 (Homo sapiens, UniProt P61073); assay: Calcium mobilization assay in MDA-MB-231 cells expressing CXCR4 alone; details: cells expressing CXCR4 alone; CXCR4 inhibitor only; stimulated with CXCL12 20 nM and Salmeterol 1 μM; read-out: CXCR4 IC50 of Ca2+ response
T6 construct: expressed in transfected cells
Description: The cells were then stained with Cal-6 for 2 hours and stimulated with CXCR4 agonsit (CXCL12; 20 nM) and ADRB2 agonist (Salmeterol; 1 μM).

CXCR4-HRH1 heteromer = target: T7, CXCR4-HRH1 heteromer (Homo sapiens, UniProt P35367+P61073); assay: Calcium mobilization assay, enhanced signaling of CXCR4-HRH1 heteromer in MDA-MB-231 cells; details: CXCR4 inhibitor only; CXCL12 20 nM and Histamine 1 nM; read-out: IC50 of Ca2+ response, HRH1 inhibitor: None
T7 construct: expressed in transfected cells
Description: as §2, with “CXCR4-HRH1” for “CXCR4-EDNRB”, “HRH1” for “EDNRB”, “Hydroxyzine, Prometazine,” for “ambrisentan”, “Cyproheptadine” for “bosentan”, “8).” for “12).”

T1 sequence (P61073 whole entry): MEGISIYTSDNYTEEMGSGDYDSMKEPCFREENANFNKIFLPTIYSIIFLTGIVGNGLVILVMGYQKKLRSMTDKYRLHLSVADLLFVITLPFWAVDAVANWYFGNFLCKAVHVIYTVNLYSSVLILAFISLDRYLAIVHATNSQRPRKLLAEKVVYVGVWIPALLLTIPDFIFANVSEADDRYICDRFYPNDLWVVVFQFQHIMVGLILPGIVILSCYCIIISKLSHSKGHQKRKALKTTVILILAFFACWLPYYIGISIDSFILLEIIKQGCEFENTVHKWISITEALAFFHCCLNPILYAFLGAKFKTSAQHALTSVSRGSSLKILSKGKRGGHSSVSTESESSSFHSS
T1 sequence (P07550 whole entry): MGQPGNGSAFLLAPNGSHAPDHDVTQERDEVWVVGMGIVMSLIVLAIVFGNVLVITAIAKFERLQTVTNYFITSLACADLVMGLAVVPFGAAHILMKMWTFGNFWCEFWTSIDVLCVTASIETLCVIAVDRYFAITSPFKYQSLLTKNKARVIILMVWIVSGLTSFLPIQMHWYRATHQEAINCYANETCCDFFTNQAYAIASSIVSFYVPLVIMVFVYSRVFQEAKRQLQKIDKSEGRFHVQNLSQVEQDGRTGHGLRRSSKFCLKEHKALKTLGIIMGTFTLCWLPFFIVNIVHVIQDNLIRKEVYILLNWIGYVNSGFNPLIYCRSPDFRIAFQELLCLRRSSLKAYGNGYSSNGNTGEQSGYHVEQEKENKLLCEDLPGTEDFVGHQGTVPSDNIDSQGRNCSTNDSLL
T2 sequence (P61073 whole entry): as the sequence (P61073 whole entry) above
T2 sequence (P21730 whole entry): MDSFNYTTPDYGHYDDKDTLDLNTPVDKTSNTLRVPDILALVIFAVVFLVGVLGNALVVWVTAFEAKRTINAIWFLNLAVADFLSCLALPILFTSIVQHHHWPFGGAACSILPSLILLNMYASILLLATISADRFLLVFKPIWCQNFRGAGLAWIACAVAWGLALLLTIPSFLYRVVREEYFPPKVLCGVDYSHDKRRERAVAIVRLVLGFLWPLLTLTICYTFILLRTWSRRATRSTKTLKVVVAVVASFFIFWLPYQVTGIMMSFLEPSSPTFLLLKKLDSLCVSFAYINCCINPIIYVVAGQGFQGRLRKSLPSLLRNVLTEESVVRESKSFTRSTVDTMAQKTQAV
T4 sequence (P61073 whole entry): as the sequence (P61073 whole entry) above
T4 sequence (P29371 whole entry): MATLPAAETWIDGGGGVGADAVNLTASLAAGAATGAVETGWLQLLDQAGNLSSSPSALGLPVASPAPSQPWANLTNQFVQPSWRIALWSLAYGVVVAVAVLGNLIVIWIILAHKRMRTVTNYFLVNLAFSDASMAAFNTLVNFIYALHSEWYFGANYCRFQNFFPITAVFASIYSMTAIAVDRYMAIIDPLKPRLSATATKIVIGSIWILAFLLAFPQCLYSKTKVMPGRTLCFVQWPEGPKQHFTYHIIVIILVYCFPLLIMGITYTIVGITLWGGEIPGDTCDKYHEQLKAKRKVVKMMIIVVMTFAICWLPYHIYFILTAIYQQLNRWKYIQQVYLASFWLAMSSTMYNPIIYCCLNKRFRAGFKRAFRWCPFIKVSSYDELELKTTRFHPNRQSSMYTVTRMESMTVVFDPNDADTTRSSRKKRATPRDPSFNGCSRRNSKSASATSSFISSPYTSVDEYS
T6 sequence (P61073 whole entry): as the sequence (P61073 whole entry) above
T3 sequence (P61073 whole entry): as above
T3 sequence (P24530 27-442): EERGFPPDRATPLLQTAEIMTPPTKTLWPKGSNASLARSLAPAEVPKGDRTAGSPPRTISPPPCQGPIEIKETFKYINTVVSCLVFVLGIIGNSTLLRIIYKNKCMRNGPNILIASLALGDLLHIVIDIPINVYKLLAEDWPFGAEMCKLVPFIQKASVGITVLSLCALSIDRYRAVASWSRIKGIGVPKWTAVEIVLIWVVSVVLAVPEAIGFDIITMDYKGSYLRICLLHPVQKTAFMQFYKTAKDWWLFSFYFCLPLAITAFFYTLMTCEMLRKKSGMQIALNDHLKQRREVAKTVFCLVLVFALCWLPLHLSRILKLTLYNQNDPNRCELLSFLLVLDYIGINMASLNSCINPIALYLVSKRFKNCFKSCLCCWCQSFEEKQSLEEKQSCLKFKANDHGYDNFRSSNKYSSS
Chain of CXCR4-CALCR heteromer (P61073 whole entry): as the sequence (P61073 whole entry) above
Chain of CXCR4-CALCR heteromer (P30988 25-474): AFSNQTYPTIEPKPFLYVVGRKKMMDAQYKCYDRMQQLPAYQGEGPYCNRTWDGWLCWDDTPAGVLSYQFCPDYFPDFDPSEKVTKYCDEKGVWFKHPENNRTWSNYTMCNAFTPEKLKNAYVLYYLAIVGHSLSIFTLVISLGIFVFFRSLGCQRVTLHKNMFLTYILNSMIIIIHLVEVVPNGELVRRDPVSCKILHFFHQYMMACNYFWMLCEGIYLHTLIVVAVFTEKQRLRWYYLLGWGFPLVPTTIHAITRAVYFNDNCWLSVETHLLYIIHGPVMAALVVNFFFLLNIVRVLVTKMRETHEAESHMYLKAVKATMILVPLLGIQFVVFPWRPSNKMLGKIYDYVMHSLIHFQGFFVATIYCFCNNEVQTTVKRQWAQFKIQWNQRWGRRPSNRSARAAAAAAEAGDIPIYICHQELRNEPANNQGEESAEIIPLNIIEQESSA
T5 sequence (P61073 whole entry): as the sequence (P61073 whole entry) above
T5 sequence (O43193 whole entry): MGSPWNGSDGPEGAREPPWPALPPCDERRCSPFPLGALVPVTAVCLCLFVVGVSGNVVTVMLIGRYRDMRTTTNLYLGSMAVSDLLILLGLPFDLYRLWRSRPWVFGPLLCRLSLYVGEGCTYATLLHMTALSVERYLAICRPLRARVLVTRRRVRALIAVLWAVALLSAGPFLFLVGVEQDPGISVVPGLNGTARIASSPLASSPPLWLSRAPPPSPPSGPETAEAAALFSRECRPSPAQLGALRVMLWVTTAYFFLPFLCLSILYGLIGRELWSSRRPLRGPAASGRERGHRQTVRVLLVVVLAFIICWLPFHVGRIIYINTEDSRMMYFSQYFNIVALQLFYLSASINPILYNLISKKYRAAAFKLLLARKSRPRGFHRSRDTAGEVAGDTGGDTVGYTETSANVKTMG
T7 sequence (P61073 whole entry): as the sequence (P61073 whole entry) above
T7 sequence (P35367 whole entry): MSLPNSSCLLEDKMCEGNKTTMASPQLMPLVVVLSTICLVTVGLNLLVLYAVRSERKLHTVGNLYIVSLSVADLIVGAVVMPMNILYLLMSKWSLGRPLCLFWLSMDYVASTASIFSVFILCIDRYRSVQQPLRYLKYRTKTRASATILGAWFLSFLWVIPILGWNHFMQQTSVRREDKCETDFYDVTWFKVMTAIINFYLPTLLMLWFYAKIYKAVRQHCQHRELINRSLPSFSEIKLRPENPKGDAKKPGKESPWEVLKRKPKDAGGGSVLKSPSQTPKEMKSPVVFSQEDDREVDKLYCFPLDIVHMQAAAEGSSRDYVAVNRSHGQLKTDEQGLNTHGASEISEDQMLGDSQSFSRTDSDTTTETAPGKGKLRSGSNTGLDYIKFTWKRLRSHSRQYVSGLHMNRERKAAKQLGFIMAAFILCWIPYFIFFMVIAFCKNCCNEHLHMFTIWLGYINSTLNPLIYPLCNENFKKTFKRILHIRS
Chain of CXCR4-ADCYAP1R1 heteromer (P61073 whole entry): as the sequence (P61073 whole entry) above
Chain of CXCR4-ADCYAP1R1 heteromer (P41586 21-468): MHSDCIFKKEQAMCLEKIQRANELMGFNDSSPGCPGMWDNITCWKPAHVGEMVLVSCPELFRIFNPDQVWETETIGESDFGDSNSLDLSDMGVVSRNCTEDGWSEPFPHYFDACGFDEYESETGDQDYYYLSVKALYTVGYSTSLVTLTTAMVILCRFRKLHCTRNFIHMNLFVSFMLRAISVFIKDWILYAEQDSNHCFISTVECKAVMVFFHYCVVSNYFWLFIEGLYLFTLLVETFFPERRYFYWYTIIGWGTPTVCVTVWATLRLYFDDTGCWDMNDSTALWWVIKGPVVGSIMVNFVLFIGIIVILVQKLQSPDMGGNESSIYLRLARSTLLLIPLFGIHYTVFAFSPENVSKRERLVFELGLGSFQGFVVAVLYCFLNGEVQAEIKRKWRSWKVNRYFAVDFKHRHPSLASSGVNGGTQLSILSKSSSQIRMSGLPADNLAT

IC50 [1]: 213 ± 143 nM | IC50 (CXCR4-ADRB2 heteromer; CXCR4 + ADRB2 (−Carvedilol) IC50 of Ca2+ response, stimulated with CXCL12 20 nM and Salmeterol 1 μM): 130 ± 49.8 nM | IC50 (CXCR4-ADRB2 heteromer; Table 7, CXCL12 20 nM and Salmeterol 1 μM, read-out: IC50 of Ca2+ response, ADRB2 inhibitor: None): 124 ± 76.9 nM | IC50 (CXCR4-C5AR1 heteromer): 118 ± 56.5 nM | IC50 (CXCR4-EDNRB heteromer): 2680 ± 3930 nM | IC50 (CXCR4-CALCR heteromer): 1040 ± 757 nM | IC50 (CXCR4-TACR3 heteromer): 1500 ± 420 nM | IC50 (CXCR4-MLNR heteromer): 644 ± 163 nM | IC50 (CXCR4): 434 ± 4.38 nM | IC50 (CXCR4-HRH1 heteromer): 232 ± 91.9 nM
Structure (SMILES): N=C(N)NCCC[C@H](NC(=O)[C@@H]1CSSC[C@H](NC(=O)[C@H](Cc2ccc3ccccc3c2)NC(=O)[C@H](CCCNC(=N)N)NC(=O)[C@H](CCCNC(=N)N)NC(=O)c2ccc(F)cc2)C(=O)N[C@@H](Cc2ccc(O)cc2)C(=O)N[C@@H](CCCNC(N)=O)C(=O)N[C@@H](CCCCN)C(=O)N[C@H](CCCCN)C(=O)N2CCC[C@H]2C(=O)N[C@@H](Cc2ccc(O)cc2)C(=O)N[C@@H](CCCNC(=N)N)C(=O)N[C@@H](CCCNC(N)=O)C(=O)N1)C(N)=O [BKT140] ({Benzoyl(4-F)}-RR[2Nal]CY[Cit]K[dK]PYR[Cit]CR-NH2; disulfide 4-13; C-terminus assumed)
